The values that follow come from patent US9409905B2, “Antibacterial compounds and methods for use” (PTC THERAPEUTICS, INC., priority 2011, dated 2016).

In brackets after ≈: the same amount, converted by molar mass. A value given as a limit tells only on which side of the number the result lay.

In assay [1] the test system is Escherichia coli (E. coli) BAS849. The assay is described as follows: Antibacterial activity, microbroth dilution MIC (Table 1). It is filed as cell-based. The note with it: microbroth dilution, super sensitive Gram-negative E. coli BAS849, read-out: MIC, BAS849. In a few lines:
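MIC (μg/mL) is taken as the lowest concentration with no macroscopically visible growth. Strains tested by microbroth dilution: Gram-positive S. aureus 29213, control Gram-negative E. coli 25922, and super-sensitive E. coli BAS849.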

Assay [2] relates to Staphylococcus aureus (S. aureus) 29213. The description is as above. It is filed as cell-based. The note with it: microbroth dilution, Gram-positive S. aureus 29213, read-out: MIC, 29213. In a few lines:
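Microbroth dilution was used. MIC, in μg/mL, is the lowest drug concentration preventing macroscopically visible growth under the test conditions.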
Background: Broth dilution looks for growth in wells or tubes with falling amounts of substance.

For assay [3], the system named is Pseudomonas aeruginosa (P. aeruginosa) 27853. The assay is described as follows: Antibacterial activity, MIC (Table 5). It counts as cell-based. The note with it: P. aeruginosa 27853, read-out: MIC, 27853. The essentials:
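Microbroth dilution; MIC (μg/mL) = lowest concentration with no macroscopically visible growth.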

The test system of another assay is E. coli LZ3111. The assay is described as follows: Antibacterial activity, MIC, quinolone resistant strain (Table 2). The note with it: Escherichia coli, LZ3111, read-out: MIC LZ3111. It counts as cell-based. The essentials:
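Broth microdilution. Read-out: MIC in μg/mL, taken as lowest concentration with no macroscopically visible growth.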

The test system of the next assay is E. coli 25922. The experiment in a line: Antibacterial activity, microbroth dilution MIC (Table 1). It counts as cell-based, Escherichia coli. The note with it: Escherichia coli; microbroth dilution; control Gram-negative E. coli 25922 strain; read-out: MIC, 25922. The essentials:
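Values are MICs (μg/mL): the smallest drug amount at which macroscopically visible bacterial growth is absent under assay conditions, from a microdilution method in broth.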

Assay [4] deals with Klebsiella pneumoniae (K. pneumoniae) 35657. The assay is described as follows: Antibacterial activity, MIC (Table 4). It counts as cell-based. The note with it: K. pneumoniae 35657, read-out: MIC, 35657. The essentials:
(§1)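 Values are minimum inhibitory concentrations in μg/mL from broth microdilution, meaning no macroscopically visible growth at that concentration. Resistant MXX isolates are multi-drug resistant clinical strains.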

In assay [5] the test system is Acinetobacter baumannii (A. baumannii) BAA747. The assay is described as follows: Antibacterial activity, MIC (Table 4). It counts as cell-based. The note with it: A. baumannii BAA747, read-out: MIC, BAA747. In a few lines: as §1
The test system of another assay is K. pneumoniae MXX1232. The experiment in a line: Antibacterial activity, MIC, resistant strain (Table 4). It is filed as cell-based. The note with it: Klebsiella pneumoniae, MXX1232; resistant K. pneumoniae MMX1232, multi-drug resistant clinical isolate; read-out: MIC, MMX1232. In a few lines:
as §1

The next assay has as its system A. baumannii MXX2240. The description is as above. It counts as cell-based. The note with it: Acinetobacter baumannii, MXX2240; resistant A. baumannii MMX2240, multi-drug resistant clinical isolate; read-out: MIC, MMX2240. The essentials:
as §1

For orientation: MIC means the smallest concentration in the dilution series that meets the test's criterion for growth inhibition. With `Cn1ccc2cc(-c3[nH]c(=O)c(C(=O)O)c(O)c3Cl)ccc21` [Cpd 376, 5-chloro-4-hydroxy-6-(1-methyl-1H-indol-5-yl)-2-oxo-1,2-dihydropyridine-3-carboxylic acid], the MIC lay within 3.5 to 12.5 µg/mL (≈ 11 to 39.2 µM) in assay [1]; 12.5 to 150 µg/mL (≈ 39.2 to 471 µM) in assay [2]; 12.5 to 150 µg/mL (≈ 39.2 to 471 µM) in assay [3]; 12.5 to 150 µg/mL (≈ 39.2 to 471 µM) in the assay with E. coli LZ3111; 12.5 to 150 µg/mL (≈ 39.2 to 471 µM) in the assay with E. coli 25922; 12.5 to 150 µg/mL (≈ 39.2 to 471 µM) in [4]. Further, the MIC (in assay [5]; in the assay on K. pneumoniae MXX1232; in the assay with A. baumannii MXX2240) was 12.5 to 150 µg/mL (≈ 39.2 to 471 µM) in each case.

`COc1c(-c2ccc3c(ccn3C)c2)[nH]c(=O)c(C(=O)O)c1O` [Cpd 377, 4-hydroxy-5-methoxy-6-(1-methyl-1H-indol-5-yl)-2-oxo-1,2-dihydropyridine-3-carboxylic acid]: the MIC was less than 1 µg/mL in assay [1]; 12.5 to 150 µg/mL (≈ 39.8 to 477 µM) in [2]; 12.5 to 150 µg/mL (≈ 39.8 to 477 µM) in assay [3]; 3.5 to 12.5 µg/mL (≈ 11.1 to 39.8 µM) in the assay with E. coli LZ3111; 12.5 to 150 µg/mL (≈ 39.8 to 477 µM) with E. coli 25922; 12.5 to 150 µg/mL (≈ 39.8 to 477 µM) in assay [4]. Also, the figures for the MIC (in assay [5]; with K. pneumoniae MXX1232; in the assay on A. baumannii MXX2240) were 12.5 to 150 µg/mL (≈ 39.8 to 477 µM), 12.5 to 150 µg/mL (≈ 39.8 to 477 µM) and 3.5 to 12.5 µg/mL (≈ 11.1 to 39.8 µM), respectively.

On to `CCOc1c(-c2ccc3c(ccn3C)c2)[nH]c(=O)c(C(=O)O)c1O` [Cpd 378, 4-hydroxy-5-ethoxy-6-(1-methyl-1H-indol-5-yl)-2-oxo-1,2-dihydropyridine-3-carboxylic acid], for which the MIC fell in the range of 3.5 to 12.5 µg/mL (≈ 10.7 to 38.1 µM) in [1]; 12.5 to 150 µg/mL (≈ 38.1 to 457 µM) in assay [2]; 12.5 to 150 µg/mL (≈ 38.1 to 457 µM) in assay [3]; 3.5 to 12.5 µg/mL (≈ 10.7 to 38.1 µM) in the assay with E. coli LZ3111; 12.5 to 150 µg/mL (≈ 38.1 to 457 µM) in the assay on E. coli 25922; 12.5 to 150 µg/mL (≈ 38.1 to 457 µM) in [4]. Also, the MIC in [5] lay in the range of 12.5 to 150 µg/mL (≈ 38.1 to 457 µM); in the assay on K. pneumoniae MXX1232, 12.5 to 150 µg/mL (≈ 38.1 to 457 µM); with A. baumannii MXX2240 it was 3.5 to 12.5 µg/mL (≈ 10.7 to 38.1 µM).

For the molecule `CCc1c(-c2cc3ccc(OC)cc3[nH]2)[nH]c(=O)c(C(=O)O)c1O` [Cpd 379, 5-ethyl-4-hydroxy-6-(6-methoxy-1H-indol-2-yl)-2-oxo-1,2-dihydropyridine-3-carboxylic acid], the minimal inhibitory concentration (MIC) fell in the range of 3.5 to 12.5 µg/mL (≈ 10.7 to 38.1 µM) in assay [1]; 12.5 to 150 µg/mL (≈ 38.1 to 457 µM) in assay [2]; 12.5 to 150 µg/mL (≈ 38.1 to 457 µM) in assay [3]; 12.5 to 150 µg/mL (≈ 38.1 to 457 µM) with E. coli LZ3111; 12.5 to 150 µg/mL (≈ 38.1 to 457 µM) with E. coli 25922; 12.5 to 150 µg/mL (≈ 38.1 to 457 µM) in assay [4]. In addition, the minimum inhibitory concentration (MIC) (in [5]; with K. pneumoniae MXX1232; with A. baumannii MXX2240) was 12.5 to 150 µg/mL (≈ 38.1 to 457 µM) each time.

With `CCc1c(-c2cc3cc(F)ccc3[nH]2)[nH]c(=O)c(C(=O)O)c1O` [Cpd 380, 5-ethyl-6-(5-fluoro-1H-indol-2-yl)-4-hydroxy-2-oxo-1,2-dihydropyridine-3-carboxylic acid], the minimum inhibitory concentration (MIC) lay within 3.5 to 12.5 µg/mL (≈ 11.1 to 39.5 µM) in assay [1]; 12.5 to 150 µg/mL (≈ 39.5 to 474 µM) in [2]; 12.5 to 150 µg/mL (≈ 39.5 to 474 µM) in assay [3]; 12.5 to 150 µg/mL (≈ 39.5 to 474 µM) in the assay on E. coli LZ3111; 12.5 to 150 µg/mL (≈ 39.5 to 474 µM) in the assay with E. coli 25922; 12.5 to 150 µg/mL (≈ 39.5 to 474 µM) in [4]. Also, the MIC (in assay [5]; with K. pneumoniae MXX1232; with A. baumannii MXX2240) was 12.5 to 150 µg/mL (≈ 39.5 to 474 µM) each time.

Take `CCc1ccc2[nH]c(-c3[nH]c(=O)c(C(=O)O)c(O)c3CC)cc2c1` [Cpd 381, 5-ethyl-6-(5-ethyl-1H-indol-2-yl)-4-hydroxy-2-oxo-1,2-dihydropyridine-3-carboxylic acid]: the MIC is less than 1 µg/mL in [1]; 3.5 to 12.5 µg/mL (≈ 10.7 to 38.3 µM) in [2]; 12.5 to 150 µg/mL (≈ 38.3 to 460 µM) in [3]; 12.5 to 150 µg/mL (≈ 38.3 to 460 µM) in the assay on E. coli LZ3111; 12.5 to 150 µg/mL (≈ 38.3 to 460 µM) with E. coli 25922; 12.5 to 150 µg/mL (≈ 38.3 to 460 µM) in [4]. The MIC (in assay [5]; in the assay on K. pneumoniae MXX1232; with A. baumannii MXX2240) was 12.5 to 150 µg/mL (≈ 38.3 to 460 µM) in each case.

Turning to `CCc1ccc2cc(-c3[nH]c(=O)c(C(=O)O)c(O)c3CC)[nH]c2c1` [Cpd 382, 5-ethyl-6-(6-ethyl-1H-indol-2-yl)-4-hydroxy-2-oxo-1,2-dihydropyridine-3-carboxylic acid], the MIC in assay [1] was less than 1 µg/mL; in assay [2], 3.5 to 12.5 µg/mL (≈ 10.7 to 38.3 µM); in [3] it was 12.5 to 150 µg/mL (≈ 38.3 to 460 µM); with E. coli LZ3111, 12.5 to 150 µg/mL (≈ 38.3 to 460 µM); in the assay on E. coli 25922, 12.5 to 150 µg/mL (≈ 38.3 to 460 µM); in assay [4], 12.5 to 150 µg/mL (≈ 38.3 to 460 µM). Further, the MIC (in [5]; in the assay with K. pneumoniae MXX1232; in the assay on A. baumannii MXX2240) was 12.5 to 150 µg/mL (≈ 38.3 to 460 µM) in each case.
